Earlier results in patent publication US20040142823A1, “Adjuvant compositions and pesticides” (priority 2003, published 2004).
Where two headings read alike, the source gives them in different places.

CNC(=O)CSP(=S)(OC)OC [Cygon, dimethoate]
Time to lose 50 percent of pest control power (mixed in water of pH 9): 48 min
Time to lose 50 percent of pest control power (pH of 6): 720 min
